Test results taken from patent publication EP4656185A1, “NOVEL MOLECULAR ASSEMBLY OF AXITINIB” (Scai Therapeutics Co., Ltd., priority 2024, dated 2025).

Assay: Solubility (dissolution concentration) of axitinib polymorph at pH 1 and pH 2
Type: physicochemical
Experimental: Experimental Example 4. Solubility of new axitinib polymorph (SCAI-Form)
Method for measuring solubility at pH 1: Stirred for 15 minutes at a concentration of 5 mg/mL, and then filtered, diluted 10 times with DW, and analyzed. (The value calculated as [measured value x 10] is described in the results)
Method for measuring solubility at pH 2: Stirred for 15 minutes at a concentration of 1 mg/mL, and then filtered, analyzed, and shown in Table 6.

Compound	Dissolution concentration at pH 1 (pH 1, stirred for 15 minutes at 5 mg/mL, filtered, diluted 10 times with DW, value = measured value x 10)	Dissolution concentration at pH 2 (pH 2, stirred for 15 minutes at 1 mg/mL, filtered, analyzed)	solubility of SCAI-Form relative to API (comparison with Axitinib API, from Table 6 (pH 1 and pH 2))
6-[2-(methylcarbamoyl)phenylsulfanyl]-3-E-[2-(pyridin-2-yl)ethenyl]indazole [API]	2.661 mg/mL	0.073 mg/mL	
CNC(=O)c1ccccc1Sc1ccc2c(/C=C/c3ccccn3)n[nH]c2c1 [SCAI-Form, axitinib]			about twice higher
